The structures appear in SMILES notation.

Results on 40 compounds are retold here after ChEMBL document CHEMBL1146863, “1,4-Dihydroindeno[1,2-c]pyrazoles as novel multitargeted receptor tyrosine kinase inhibitors” (Bioorg Med Chem Lett, 2006).

Experiment [1] deals with Mast/stem cell growth factor receptor Kit (Homo sapiens, UniProt P10721).
Experiment [2] addresses Vascular endothelial growth factor receptor 1 (Homo sapiens, UniProt P17948).
The target in experiment [3] is Vascular endothelial growth factor receptor 2 (Homo sapiens, UniProt P35968).
Vascular endothelial growth factor receptor 2, sequence (P35968 whole entry): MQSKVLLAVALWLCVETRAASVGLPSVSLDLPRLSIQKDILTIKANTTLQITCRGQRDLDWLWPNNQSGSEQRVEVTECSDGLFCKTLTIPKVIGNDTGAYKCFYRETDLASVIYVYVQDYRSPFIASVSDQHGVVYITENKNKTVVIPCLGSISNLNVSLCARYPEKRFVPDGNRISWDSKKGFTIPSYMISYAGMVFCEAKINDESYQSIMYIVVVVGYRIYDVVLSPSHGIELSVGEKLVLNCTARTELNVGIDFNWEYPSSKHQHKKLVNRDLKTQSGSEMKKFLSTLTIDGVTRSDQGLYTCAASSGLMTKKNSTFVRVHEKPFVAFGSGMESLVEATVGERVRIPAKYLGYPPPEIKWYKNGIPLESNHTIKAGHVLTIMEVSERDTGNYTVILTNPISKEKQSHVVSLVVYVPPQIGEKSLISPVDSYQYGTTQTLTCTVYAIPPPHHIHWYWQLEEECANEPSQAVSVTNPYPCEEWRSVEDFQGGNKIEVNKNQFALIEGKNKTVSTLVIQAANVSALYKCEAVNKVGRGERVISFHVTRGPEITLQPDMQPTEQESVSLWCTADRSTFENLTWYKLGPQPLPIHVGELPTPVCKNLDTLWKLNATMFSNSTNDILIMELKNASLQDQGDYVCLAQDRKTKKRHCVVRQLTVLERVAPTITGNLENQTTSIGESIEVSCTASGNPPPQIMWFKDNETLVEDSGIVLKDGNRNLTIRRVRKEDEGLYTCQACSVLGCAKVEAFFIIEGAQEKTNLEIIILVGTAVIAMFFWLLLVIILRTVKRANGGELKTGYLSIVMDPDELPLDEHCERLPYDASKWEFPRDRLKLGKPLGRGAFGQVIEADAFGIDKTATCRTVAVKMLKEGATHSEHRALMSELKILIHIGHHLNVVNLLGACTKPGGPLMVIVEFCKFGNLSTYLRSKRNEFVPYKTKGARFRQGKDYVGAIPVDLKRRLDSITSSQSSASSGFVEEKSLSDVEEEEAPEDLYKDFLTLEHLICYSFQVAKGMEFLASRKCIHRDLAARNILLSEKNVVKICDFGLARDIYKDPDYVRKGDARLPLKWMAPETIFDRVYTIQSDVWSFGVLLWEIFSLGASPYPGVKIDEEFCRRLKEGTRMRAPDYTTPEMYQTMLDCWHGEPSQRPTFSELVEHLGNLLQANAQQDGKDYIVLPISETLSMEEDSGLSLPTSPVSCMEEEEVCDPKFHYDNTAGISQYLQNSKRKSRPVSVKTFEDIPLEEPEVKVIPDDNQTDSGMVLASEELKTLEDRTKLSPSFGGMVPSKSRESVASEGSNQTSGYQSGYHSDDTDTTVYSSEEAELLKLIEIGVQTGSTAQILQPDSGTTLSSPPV
The target of the next experiment is Cytochrome P450 3A4 (Homo sapiens, UniProt P08684). Put plainly: Inhibition of CYP3A4 in human liver microsome. Type of experiment: ADME.
Cytochrome P450 3A4, sequence (P08684 whole entry): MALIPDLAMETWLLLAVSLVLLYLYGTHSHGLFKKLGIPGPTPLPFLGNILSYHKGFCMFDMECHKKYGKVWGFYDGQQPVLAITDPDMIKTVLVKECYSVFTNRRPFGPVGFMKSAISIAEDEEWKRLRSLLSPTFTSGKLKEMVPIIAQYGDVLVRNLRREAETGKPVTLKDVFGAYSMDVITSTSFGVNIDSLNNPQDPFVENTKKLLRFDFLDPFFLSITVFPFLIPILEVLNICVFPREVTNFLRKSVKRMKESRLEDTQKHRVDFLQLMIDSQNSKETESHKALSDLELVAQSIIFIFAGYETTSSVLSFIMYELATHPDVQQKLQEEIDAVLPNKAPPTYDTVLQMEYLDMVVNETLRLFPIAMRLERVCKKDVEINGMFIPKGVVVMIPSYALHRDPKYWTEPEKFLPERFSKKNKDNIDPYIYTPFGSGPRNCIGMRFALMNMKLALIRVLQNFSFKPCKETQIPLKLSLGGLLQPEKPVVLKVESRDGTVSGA
The next experiment deals with Angiopoietin-1 receptor (Homo sapiens, UniProt Q02763). Put plainly: Inhibition of Tie2 at 1 mM ATP by HTRF assay. For orientation: Time-resolved FRET reads energy transfer from a long-lived donor to a nearby acceptor.

Mast/stem cell growth factor receptor Kit, sequence (P10721 whole entry): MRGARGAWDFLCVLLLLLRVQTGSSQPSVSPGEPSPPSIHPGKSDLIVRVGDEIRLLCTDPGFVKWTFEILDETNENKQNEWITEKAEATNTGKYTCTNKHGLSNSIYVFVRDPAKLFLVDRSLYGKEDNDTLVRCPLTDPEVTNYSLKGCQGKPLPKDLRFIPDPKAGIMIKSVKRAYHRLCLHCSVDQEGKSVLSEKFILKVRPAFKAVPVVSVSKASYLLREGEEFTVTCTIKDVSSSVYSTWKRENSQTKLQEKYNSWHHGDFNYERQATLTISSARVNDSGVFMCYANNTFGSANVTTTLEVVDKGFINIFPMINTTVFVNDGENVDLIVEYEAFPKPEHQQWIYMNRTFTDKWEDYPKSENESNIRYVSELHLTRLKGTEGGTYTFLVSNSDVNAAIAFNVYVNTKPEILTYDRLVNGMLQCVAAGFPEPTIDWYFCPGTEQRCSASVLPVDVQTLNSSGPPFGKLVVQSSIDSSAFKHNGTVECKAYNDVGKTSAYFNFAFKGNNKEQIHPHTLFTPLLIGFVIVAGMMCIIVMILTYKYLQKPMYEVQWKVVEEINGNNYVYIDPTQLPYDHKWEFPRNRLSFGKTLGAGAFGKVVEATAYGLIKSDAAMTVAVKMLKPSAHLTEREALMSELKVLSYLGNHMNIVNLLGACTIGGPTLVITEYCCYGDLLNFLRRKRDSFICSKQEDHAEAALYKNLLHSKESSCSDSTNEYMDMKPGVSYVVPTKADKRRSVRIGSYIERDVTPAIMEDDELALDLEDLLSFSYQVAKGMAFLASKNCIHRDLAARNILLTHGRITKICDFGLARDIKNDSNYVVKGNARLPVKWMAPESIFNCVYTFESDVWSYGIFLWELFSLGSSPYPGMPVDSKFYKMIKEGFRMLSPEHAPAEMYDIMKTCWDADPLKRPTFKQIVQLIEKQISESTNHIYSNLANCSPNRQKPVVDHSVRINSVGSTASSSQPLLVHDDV
Vascular endothelial growth factor receptor 1, sequence (P17948 whole entry): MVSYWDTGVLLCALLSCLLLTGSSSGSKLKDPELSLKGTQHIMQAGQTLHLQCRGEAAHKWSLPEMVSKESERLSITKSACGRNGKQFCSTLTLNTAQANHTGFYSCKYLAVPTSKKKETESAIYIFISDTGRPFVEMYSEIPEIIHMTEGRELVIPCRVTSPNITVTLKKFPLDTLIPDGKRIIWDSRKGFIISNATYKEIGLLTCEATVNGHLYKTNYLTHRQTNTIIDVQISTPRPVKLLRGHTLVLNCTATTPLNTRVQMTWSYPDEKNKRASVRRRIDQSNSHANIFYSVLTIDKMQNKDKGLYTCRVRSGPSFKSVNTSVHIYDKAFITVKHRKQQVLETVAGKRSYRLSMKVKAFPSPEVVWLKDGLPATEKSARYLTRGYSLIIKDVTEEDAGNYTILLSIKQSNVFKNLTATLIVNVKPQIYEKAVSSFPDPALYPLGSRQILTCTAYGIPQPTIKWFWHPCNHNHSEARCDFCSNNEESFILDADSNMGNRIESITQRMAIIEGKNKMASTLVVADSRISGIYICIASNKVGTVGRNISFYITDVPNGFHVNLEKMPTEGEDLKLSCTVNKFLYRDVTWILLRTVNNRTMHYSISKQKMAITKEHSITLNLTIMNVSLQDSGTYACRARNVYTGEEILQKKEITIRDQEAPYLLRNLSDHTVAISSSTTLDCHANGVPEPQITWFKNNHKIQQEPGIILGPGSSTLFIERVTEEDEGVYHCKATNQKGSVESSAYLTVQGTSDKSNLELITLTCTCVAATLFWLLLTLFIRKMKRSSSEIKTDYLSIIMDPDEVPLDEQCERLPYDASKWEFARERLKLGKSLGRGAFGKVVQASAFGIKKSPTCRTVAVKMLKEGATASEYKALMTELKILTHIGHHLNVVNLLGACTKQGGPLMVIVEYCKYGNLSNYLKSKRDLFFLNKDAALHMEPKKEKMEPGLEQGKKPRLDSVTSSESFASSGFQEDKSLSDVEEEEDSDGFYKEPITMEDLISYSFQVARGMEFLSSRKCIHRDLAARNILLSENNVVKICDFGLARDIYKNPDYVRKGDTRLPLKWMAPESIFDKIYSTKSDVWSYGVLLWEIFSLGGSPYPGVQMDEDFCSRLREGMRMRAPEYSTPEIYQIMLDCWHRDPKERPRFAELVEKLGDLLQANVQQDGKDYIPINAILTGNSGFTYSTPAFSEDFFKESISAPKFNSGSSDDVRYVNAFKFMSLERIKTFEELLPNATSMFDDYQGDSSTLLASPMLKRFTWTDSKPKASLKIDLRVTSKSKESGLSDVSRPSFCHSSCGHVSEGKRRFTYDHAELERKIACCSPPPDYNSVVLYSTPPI

One may read the IC50 as the concentration at which inhibition is half-maximal. A high value points to a need for much substance. Consider `Cc1ccc(NC(=O)NCc2ccc(-c3n[nH]c4c3Cc3ccc(CN5CCN(C)CC5)cc3-4)s2)cc1`, for which the results for the 50% inhibitory concentration (IC50) in experiment [1] and in experiment [2] were 27 nM and 613 nM, respectively.

On to `Cc1cc(C)cc(NC(=O)NCc2ccc(-c3n[nH]c4c3Cc3cc(CN5CCN(C)CC5)ccc3-4)s2)c1`, for which the IC50 in experiment [1] came out at 27 nM; in experiment [2], 1670 nM.

`CN1CCN(Cc2ccc3c(c2)Cc2c(-c4ccc(CNC(=O)Nc5ccccc5Cl)s4)n[nH]c2-3)CC1` registered an IC50 in experiment [1] of 921 nM.

In the case of `CN1CCN(Cc2ccc3c(c2)Cc2c-3n[nH]c2-c2ccc(CN(C)C(=O)Nc3ccccc3Cl)s2)CC1`, the results for the half-inhibitory concentration (IC50) in experiment [1] and in experiment [2] were over 50000 nM and 3840 nM, respectively.

As to `Cc1cccc(NC(=O)N(Cc2ccc(-c3[nH]nc4c3Cc3cc(CN5CCN(C)CC5)ccc3-4)s2)CC(C)C)c1`, the IC50 stood at 17200 nM in experiment [1] and 1590 nM in experiment [2].

For the compound `CN1CCN(Cc2ccc3c(c2)-c2[nH]nc(-c4ccc(CNC(=O)Nc5ccccc5)s4)c2C3)CC1`, the IC50 in experiment [1] came out at 101 nM; in experiment [2] it was 3780 nM.

Consider `CN1CCN(Cc2ccc3c(c2)-c2n[nH]c(-c4ccc(CN(C)C(=O)Nc5ccc(Br)cc5)s4)c2C3)CC1`, for which the concentration for half-maximal inhibition (IC50) in experiment [1] was 17 nM; in experiment [2] it was 38 nM.

`CN1CCN(Cc2ccc3c(c2)Cc2c-3n[nH]c2-c2csc(CNS(=O)(=O)Cc3ccccc3)c2)CC1` gave an IC50 in experiment [3] of over 50000 nM.

Regarding `c1cn(Cc2ccc3c(c2)-c2[nH]nc(-c4ccsc4)c2C3)cn1`, the half-maximal inhibitory concentration (IC50) on Cytochrome P450 3A4 was 254 nM; in experiment [3], 147 nM.

On to `CN1CCN(Cc2ccc3c(c2)Cc2c(-c4ccc(CNC(=O)Nc5ccc(C(F)(F)F)cc5)s4)n[nH]c2-3)CC1`, for which the IC50 in experiment [1] turned out to be 13 nM; in experiment [2], 4200 nM.

Regarding `CN1CCN(Cc2ccc3c(c2)-c2n[nH]c(-c4ccc(CN(C)C(=O)Nc5ccc(OC(F)(F)F)cc5)s4)c2C3)CC1`, the 50% inhibitory concentration (IC50) turned out to be 19 nM in experiment [1] and 25 nM in experiment [2].

Regarding `Cc1ccccc1NC(=O)NCc1ccc(-c2[nH]nc3c2Cc2ccc(CN4CCN(C)CC4)cc2-3)s1`, the IC50 in experiment [1] is 674 nM; in experiment [2], 2060 nM.

Regarding `CN1CCN(Cc2ccc3c(c2)Cc2c-3n[nH]c2-c2ccc(CNC(=O)Nc3cccc(C(F)(F)F)c3)s2)CC1`, the IC50 in experiment [1] was found to be 17 nM; in experiment [2], 863 nM.

In the case of `Cc1cccc(N(C)C(=O)N(C)Cc2ccc(-c3[nH]nc4c3Cc3cc(CN5CCN(C)CC5)ccc3-4)s2)c1`, the half-inhibitory concentration (IC50) in experiment [1] came out at 26800 nM; in experiment [2], 27900 nM.

Consider `COCCN(Cc1ccc(-c2[nH]nc3c2Cc2cc(CN4CCN(C)CC4)ccc2-3)s1)C(=O)Nc1cccc(C)c1`, for which the concentration for half-maximal inhibition (IC50) in experiment [1] is over 50000 nM; in experiment [2] it was 2260 nM.

For the compound `CCN(Cc1ccc(-c2[nH]nc3c2Cc2cc(CN4CCN(C)CC4)ccc2-3)s1)C(=O)Nc1cccc(C)c1`, the IC50 is 2190 nM in experiment [1] and 131 nM in experiment [2].

In the case of `Cc1cccc(NC(=O)NCc2ccc(-c3n[nH]c4c3Cc3cc(CN5CCN(C)CC5)ccc3-4)s2)c1`, the values for the IC50 in experiment [1] and in experiment [2] were 86 nM and 2900 nM, respectively.

On Cytochrome P450 3A4, `CN1CCN(Cc2ccc3c(c2)-c2[nH]nc(-c4ccsc4)c2C3)CC1` displayed an IC50 of over 10000 nM.

Turning to `Cc1cccc(NC(=O)N(CCC(C)C)Cc2ccc(-c3[nH]nc4c3Cc3cc(CN5CCN(C)CC5)ccc3-4)s2)c1`, the IC50 was 4840 nM in experiment [1] and 3620 nM in experiment [2].

Turning to `CN1CCN(Cc2ccc3c(c2)-c2n[nH]c(-c4ccc(CN(C)C(=O)Nc5cccc(C(F)(F)F)c5)s4)c2C3)CC1`, the results for the IC50 (in experiment [1]; against Angiopoietin-1 receptor; in experiment [2]) were 18 nM, 259 nM and 14 nM, respectively.

Take `Cc1cccc(NC(=O)N(Cc2ccc(-c3[nH]nc4c3Cc3cc(CN5CCN(C)CC5)ccc3-4)s2)C2CC2)c1`: the figures for the half-inhibitory concentration (IC50) in experiment [1] and in experiment [2] were 136 nM and 38 nM, respectively.

On to `CON(Cc1ccc(-c2[nH]nc3c2Cc2cc(CN4CCN(C)CC4)ccc2-3)s1)C(=O)Nc1cccc(C)c1`, for which the IC50 stood at 237 nM in experiment [1] and 1350 nM in experiment [2].

`Cc1cccc(NC(=O)NCc2ccc(-c3n[nH]c4c3Cc3ccc(CN5CCN(C)CC5)cc3-4)s2)c1`: the figures for the IC50 in experiment [1] and in experiment [2] were 69 nM and 592 nM, respectively.

For the compound `Cc1cccc(N/C(=N/Cc2ccc(-c3n[nH]c4c3Cc3cc(CN5CCN(C)CC5)ccc3-4)s2)NC#N)c1`, in experiment [3], the IC50 was over 50000 nM.

As to `CN1CCN(Cc2ccc3c(c2)Cc2c-3n[nH]c2-c2ccc(CNC(=O)Nc3ccccc3C(F)(F)F)s2)CC1`, the 50% inhibitory concentration (IC50) in experiment [1] was 23800 nM; in experiment [2] it was over 50000 nM.

In the case of `CN1CCN(Cc2ccc3c(c2)-c2n[nH]c(-c4ccc(CN(C)C(=O)Nc5ccc(Cl)c(Cl)c5)s4)c2C3)CC1`, the concentration for half-maximal inhibition (IC50) in experiment [1] was determined as 28 nM; in experiment [2] it was 36 nM.

In the case of `Cc1cccc(NC(=O)N(C)Cc2ccc(-c3n[nH]c4c3Cc3ccc(CN5CCN(C)CC5)cc3-4)s2)c1`, the IC50 in experiment [1] was 96 nM; in experiment [2] it was 44 nM.

Turning to `Cc1cccc(NC(=O)N(C)Cc2ccc(-c3[nH]nc4c3Cc3cc(CN5CCN(C)CC5)ccc3-4)s2)c1`, the results for the half-inhibitory concentration (IC50) in experiment [1] and in experiment [2] were 14700 nM and 4720 nM, respectively.

Regarding `Cc1cccc(NC(=O)N(Cc2ccc(-c3[nH]nc4c3Cc3cc(CN5CCN(C)CC5)ccc3-4)s2)C(C)C)c1`, the IC50 in experiment [1] came to 9750 nM; in experiment [2] it was 2820 nM.

Regarding `CN1CCN(Cc2ccc3c(c2)-c2n[nH]c(-c4ccc(CN(C)C(=O)Nc5cccc(Cl)c5)s4)c2C3)CC1`, the IC50 in experiment [1] was determined as 38 nM; in experiment [2], 20 nM.

As to `CN1CCN(Cc2ccc3c(c2)Cc2c-3n[nH]c2-c2ccc(CN(C)C(=O)Nc3cc(F)cc(C(F)(F)F)c3)s2)CC1`, the IC50 is 25 nM in experiment [1] and 33 nM in experiment [2].

On to `CN1CCN(Cc2ccc3c(c2)Cc2c-3n[nH]c2-c2ccc(CN(C)C(=O)Nc3cccc(OC(F)(F)F)c3)s2)CC1`, for which the IC50 in experiment [1] stood at 56 nM; in experiment [2], 19 nM.

Take `CCCN(Cc1ccc(-c2[nH]nc3c2Cc2cc(CN4CCN(C)CC4)ccc2-3)s1)C(=O)Nc1cccc(C)c1`: the concentration for half-maximal inhibition (IC50) in experiment [1] came to 75 nM; in experiment [2], 59 nM.

Regarding `CN1CCN(Cc2ccc3c(c2)-c2n[nH]c(-c4ccc(CN(C)C(=O)Nc5ccc(Cl)cc5)s4)c2C3)CC1`, the half-maximal inhibitory concentration (IC50) in experiment [1] was 36 nM; in experiment [2], 64 nM.

With `CN1CCN(Cc2ccc3c(c2)Cc2c(-c4ccc(CNC(=O)Nc5cc(Cl)cc(Cl)c5)s4)n[nH]c2-3)CC1`, the IC50 in experiment [1] was found to be 38 nM; in experiment [2] it was 2280 nM.

Consider `CN1CCN(Cc2ccc3c(c2)-c2n[nH]c(-c4ccc(CN(C)C(=O)Nc5ccc(F)cc5)s4)c2C3)CC1`, for which the IC50 is 59 nM in experiment [1] and 83 nM in experiment [2].

`Cc1ccc(NC(=O)NCc2ccc(-c3[nH]nc4c3Cc3cc(CN5CCN(C)CC5)ccc3-4)s2)cc1`: the IC50 in experiment [1] was found to be 24 nM; in experiment [2], 11500 nM.

Turning to `Cc1cccc(N(C)C(=O)NCc2ccc(-c3[nH]nc4c3Cc3cc(CN5CCN(C)CC5)ccc3-4)s2)c1`, the half-maximal inhibitory concentration (IC50) in experiment [1] amounted to 139 nM; in experiment [2] it was 14600 nM.

`Cc1ccccc1NC(=O)NCc1ccc(-c2[nH]nc3c2Cc2cc(CN4CCN(C)CC4)ccc2-3)s1`: the half-inhibitory concentration (IC50) turned out to be 1390 nM in experiment [1] and 25000 nM in experiment [2].

On to `Cc1ccc2nc(NCc3ccc(-c4[nH]nc5c4Cc4cc(CN6CCN(C)CC6)ccc4-5)s3)[nH]c2c1`, for which the IC50 in experiment [3] is over 50000 nM.
